Assay results published in ChEMBL document CHEMBL3526048, “In vitro metabolism of rivoglitazone, a novel peroxisome proliferator-activated receptor γ agonist, in rat, monkey, and human liver microsomes and freshly isolated hepatocytes” (Drug Metab Dispos, 2011).

Experiments:
[1] = system: Hepatocyte (Macaca fascicularis); assay: Drug level in monkey hepatocytes treated with [14C]-rivoglitazone at 30 uM after 3 hrs by radio-HPLC/LC-MS/MS analysis in presence of UDPGA, UDPGA/SAM and NADPH-generating system; settings: cynomolgus monkey
[2] = target: T1, UDP-glucuronosyltransferase 1A9 (Homo sapiens, UniProt O60656); assay: Activity of human UGT1A9 expressed in microsomes isolated from baculovirus infected insect cell assessed as enzyme-mediated 2-mercapto-3-(4-((6-methoxy-1-methyl-1H-benzo[d]imidazol-2-yl)methoxy)phenyl)propanoic acid formation at 20 uM after 4 hrs by radio-HPLC/LC-MS/MS analysis in presence of UDPGA; assay type: ADME
T1 sequence (O60656 whole entry): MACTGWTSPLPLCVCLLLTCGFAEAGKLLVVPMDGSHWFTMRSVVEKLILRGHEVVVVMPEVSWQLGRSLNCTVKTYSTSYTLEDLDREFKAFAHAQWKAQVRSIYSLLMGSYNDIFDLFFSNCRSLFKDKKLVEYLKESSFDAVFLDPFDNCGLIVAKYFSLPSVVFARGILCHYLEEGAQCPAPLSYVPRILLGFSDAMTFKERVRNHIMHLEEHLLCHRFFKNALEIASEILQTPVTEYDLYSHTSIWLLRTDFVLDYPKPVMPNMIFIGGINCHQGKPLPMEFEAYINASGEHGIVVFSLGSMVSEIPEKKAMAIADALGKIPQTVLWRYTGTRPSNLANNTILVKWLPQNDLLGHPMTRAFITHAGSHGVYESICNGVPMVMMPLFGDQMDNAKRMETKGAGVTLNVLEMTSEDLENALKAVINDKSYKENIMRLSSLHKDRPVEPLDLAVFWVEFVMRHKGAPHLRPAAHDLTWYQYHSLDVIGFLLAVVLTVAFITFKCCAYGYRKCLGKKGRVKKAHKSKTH

[3] = target: T2, UDP-glucuronosyltransferase 1A7 (Homo sapiens, UniProt Q9HAW7); assay: Activity of human UGT1A7 expressed in microsomes isolated from baculovirus infected insect cell assessed as enzyme-mediated (2S,3S,4S,5R,6R)-6-((1-carboxy-2-(4-((6-methoxy-1-methyl-1H-benzo[d]imidazol-2-yl)methoxy)phenyl)ethylthio)carbonylamino)-3,4,5-trihydroxytetrahydro-2H-pyran-2-carboxylic acid formation at 20 uM after 4 hrs by radio-HPLC/LC-MS/MS analysis in presence of UDPGA; assay type: ADME
T2 sequence (Q9HAW7 whole entry): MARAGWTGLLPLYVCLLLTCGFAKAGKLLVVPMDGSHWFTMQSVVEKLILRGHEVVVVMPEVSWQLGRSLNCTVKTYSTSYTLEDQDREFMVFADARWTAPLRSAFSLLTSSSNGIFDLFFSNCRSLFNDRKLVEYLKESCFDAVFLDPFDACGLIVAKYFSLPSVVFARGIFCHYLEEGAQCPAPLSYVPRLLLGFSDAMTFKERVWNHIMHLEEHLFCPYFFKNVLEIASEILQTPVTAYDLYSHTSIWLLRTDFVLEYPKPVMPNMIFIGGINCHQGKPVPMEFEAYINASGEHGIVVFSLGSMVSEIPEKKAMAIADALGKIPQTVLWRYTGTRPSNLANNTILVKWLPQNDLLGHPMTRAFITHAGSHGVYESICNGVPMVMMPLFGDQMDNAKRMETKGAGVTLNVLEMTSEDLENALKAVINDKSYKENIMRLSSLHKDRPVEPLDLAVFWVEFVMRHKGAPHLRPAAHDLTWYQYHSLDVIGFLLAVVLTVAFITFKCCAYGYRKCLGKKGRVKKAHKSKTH

[4] = target: T3, UDP-glucuronosyltransferase 2B7 (Homo sapiens, UniProt P16662); assay: Activity of human UGT2B7 expressed in microsomes isolated from baculovirus infected insect cell assessed as enzyme-mediated 2-hydroxy-3-(4-((6-methoxy-1-methyl-1H-benzo[d]imidazol-2-yl)methoxy)phenyl)propanamide formation at 20 uM after 4 hrs by radio-HPLC/LC-MS/MS analysis in presence of NADPH-generating system and NADPH-generating system/SAM in presence of UDPGA and UDPGA/SAM; assay type: ADME
T3 sequence (P16662 whole entry): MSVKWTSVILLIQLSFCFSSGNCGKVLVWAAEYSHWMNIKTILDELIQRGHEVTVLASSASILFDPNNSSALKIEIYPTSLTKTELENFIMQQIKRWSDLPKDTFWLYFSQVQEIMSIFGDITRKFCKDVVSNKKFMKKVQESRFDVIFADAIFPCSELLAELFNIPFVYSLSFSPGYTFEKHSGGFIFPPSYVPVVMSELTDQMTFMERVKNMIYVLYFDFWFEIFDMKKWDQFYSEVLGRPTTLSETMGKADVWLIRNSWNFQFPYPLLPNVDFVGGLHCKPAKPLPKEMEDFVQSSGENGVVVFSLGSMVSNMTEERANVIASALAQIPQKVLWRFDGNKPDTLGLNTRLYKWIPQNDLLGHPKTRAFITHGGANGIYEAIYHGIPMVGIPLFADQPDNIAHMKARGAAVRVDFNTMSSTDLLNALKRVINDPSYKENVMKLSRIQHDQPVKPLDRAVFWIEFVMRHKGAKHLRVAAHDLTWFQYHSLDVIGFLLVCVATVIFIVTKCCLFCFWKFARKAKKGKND

[5] = Drug metabolism in po dosed monkey bile assessed as formation of 5-(4-((6-methoxy-1H-benzo[d]imidazol-2-yl)methoxy)benzyl)thiazolidine-2,4-dione; assay type: ADME, organism-based, Macaca mulatta; settings: rhesus monkey, in vivo
[6] = target: T4, UDP-glucuronosyltransferase 1A8 (Homo sapiens, UniProt Q9HAW9); assay: Activity of human UGT1A8 expressed in microsomes isolated from baculovirus infected insect cell assessed as enzyme-mediated (2S,3S,4S,5R,6R)-3,4,5-trihydroxy-6-(5-(4-((6-methoxy-1-methyl-1H-benzo[d]imidazol-2-yl)methoxy)benzyl)-2,4-dioxothiazolidin-3-yl)tetrahydro-2H-pyran-2-carboxylic acid formation at 20 uM after 4 hrs by radio-HPLC/LC-MS/MS analysis in presence of UDPGA; assay type: ADME
T4 sequence (Q9HAW9 whole entry): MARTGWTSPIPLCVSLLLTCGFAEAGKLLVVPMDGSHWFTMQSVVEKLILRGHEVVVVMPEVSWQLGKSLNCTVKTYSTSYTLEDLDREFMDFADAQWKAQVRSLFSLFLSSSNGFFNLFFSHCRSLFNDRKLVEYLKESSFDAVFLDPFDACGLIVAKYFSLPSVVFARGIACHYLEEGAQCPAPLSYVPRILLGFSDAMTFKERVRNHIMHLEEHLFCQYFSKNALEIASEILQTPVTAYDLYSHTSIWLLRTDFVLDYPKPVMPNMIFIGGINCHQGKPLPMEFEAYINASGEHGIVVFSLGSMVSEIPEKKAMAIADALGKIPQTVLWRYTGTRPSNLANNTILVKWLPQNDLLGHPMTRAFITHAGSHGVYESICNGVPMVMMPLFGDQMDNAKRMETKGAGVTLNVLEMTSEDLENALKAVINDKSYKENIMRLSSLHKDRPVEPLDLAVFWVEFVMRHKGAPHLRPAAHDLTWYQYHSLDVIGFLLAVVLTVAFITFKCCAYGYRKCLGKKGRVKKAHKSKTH

[7] = target: T1, UDP-glucuronosyltransferase 1A9; assay: Activity of human UGT1A9 expressed in microsomes isolated from baculovirus infected insect cell assessed as enzyme-mediated (2S,3S,4S,5R,6R)-6-((1-carboxy-2-(4-((6-methoxy-1-methyl-1H-benzo[d]imidazol-2-yl)methoxy)phenyl)ethylthio)carbonylamino)-3,4,5-trihydroxytetrahydro-2H-pyran-2-carboxylic acid formation at 20 uM after 4 hrs by radio-HPLC/LC-MS/MS analysis in presence of UDPGA; assay type: ADME
[8] = Drug metabolism in monkey hepatocytes assessed as formation of (2S,3S,4S,5R,6R)-3,4,5-trihydroxy-6-(5-(4-((6-methoxy-1-methyl-1H-benzo[d]imidazol-2-yl)methoxy)benzyl)-2,4-dioxothiazolidin-3-yl)tetrahydro-2H-pyran-2-carboxylic acid at 30 uM after 3 hrs by radio-HPLC/LC-MS/MS analysis in presence of UDPGA and UDPGA/SAM; settings: cynomolgus monkey

| SMILES | Drug metabolism [1] | Drug metabolism [2] | Drug metabolism [3] | Drug metabolism [4] | Drug metabolism [5] | Drug metabolism [6] | Drug metabolism [7] | Drug metabolism [8] |
| --- | --- | --- | --- | --- | --- | --- | --- | --- |
| COc1ccc2nc(COc3ccc(CC(S)C(=O)O)cc3)n(C)c2c1 (stereo not drawn) | metabolite_not_detected |  |  |  |  |  |  |  |
| COc1ccc2nc(COc3ccc(C[14CH]4SC(=O)NC4=O)cc3)n(C)c2c1.Cl (racemic) |  | metabolite_not_detected | metabolite_not_detected | metabolite_not_detected | metabolite_detected | metabolite_not_detected | metabolite_not_detected | metabolite_detected |
